From patent US20100317730A1, “Treatment for menopausal and perimenopausal vasomotor symptons” (priority 2009, published 2010)

Tested on: perimenopausal and menopausal vasomotor symptoms, hot flashes and excessive sweating
Assay: Clinical use of topiramate for menopausal and perimenopausal vasomotor symptoms
Assay type: in vivo, human
From the text: Based on data and observations made by the inventor, they have found topiramate to have the following, previously undiscovered, beneficial pharmacological effects for patients with excessive sweating and hot flashes. They are as follows: • 1. […] Helps to prevent patients from experiencing hot flashes, excessive sweating, and vasomotor symptoms associated with their perimenopause and menopause. • 3. Substantial improve or completely suppress nighttime vasomotor symptoms, excessive sweating, and hot flashes associated with perimenopause and menopause. • 4. Substantial improve or completely suppress daytime vasomotor symptoms, excessive sweating, and hot flashes associated with perimenopause and menopause. • 5. Effective in controlling these symptoms when taken only on an as needed basis. […] Optionally, the topiramate can be taken as a low dose on an as-needed basis. […] a person had been stable on their current treatment for Panic and Major Depressive Disorders with a satisfactory remission for several years and without any side effect complaints. However, now […], they started developing menopausal symptoms of hot flashes and excessive sweating. After counselling and informed consent about the off-label use, they took a trial of topiramate 25 mg by mouth twice daily. Upon follow up, they confirmed that the excessive sweating was improved with this low dose of topiramate and that they have found it to be effective when taken on an as needed basis, depending on their expectations of physical activity and weather/temperature conditions. […] Several other similar clinical examples were observed.

CC1(C)O[C@@H]2[C@@H](CO[C@@]3(COS(N)(=O)=O)OC(C)(C)O[C@@H]23)O1 [topiramate]
excessive sweating (A person, menopausal hot flashes and excessive sweating, topiramate 25 mg by mouth twice daily, at follow up): improved
effectiveness when taken on an as needed basis (A person, low dose topiramate taken as needed, depending on physical activity and weather/temperature): effective
adverse effects (A person, topiramate 25 mg by mouth twice daily): no adverse effects
side effects (inventor's patients, small doses): minimal to no side effects
vasomotor symptoms, excessive sweating and hot flashes (perimenopausal and menopausal patients, inventor's data and observations): Substantial improvement
treating hot flashes and hyperhidrosis (perimenopausal and menopausal women, doses as low as 12.5 mg per day): highly effective
